Like-named read-outs stand apart in the source and are kept apart here.
Legend:
[1] = target: T1, mutant PI3Kα H1047R protein (Homo sapiens, UniProt P42336, H1047R); test: In vitro cell-free PI3Kα activity assay using PIP2 containing liposomes (H1047R mutant); type: biochemical; details: for Inhibition selectivity for mutant PI3Kα H1047R compared to wild-type PI3Kα: ratio of IC50 WT / H1047R; for IC50: logit-log plots, PIP2 liposomes
T1 construct: purchased Millipore
Description: PI3Kα activity assays on the identified lead compound and its analogs were performed using PIP2 containing liposomes (Gkeka et al., PLoS Comput Biol 10:e1003895 (2014)). Complexes of PIK3CA (WT or […])/PIK3R1 were obtained from Millipore. The assay was based on a protocol provided by Millipore, with modifications (Papafotika et al., in preparation) which will be further described below. In this assay, PIP3 molecules produced by PI3Kα compete with biotinylated PIP3 for binding with a recombinant GST-GRP1-PH domain (amino acids 263-380), which has been produced in bacteria, bound to glutathione coated 96-well plates. Quantitation of the competed amount of biotin-PIP3 is estimated by the peroxidase activity of streptavidin-HRP that binds to the plate and provides a measure for the activity of the protein. The compounds were preincubated with all the components of the assay mixture, except PIP2, for 10 min, at 25° C. PIP2 is added in the end of the preincubation period, thereby initiating the kinase reaction. IC50 values were calculated from dose-response curves using logit-log plots. All assays were carried out in at least three independent experiments and each concentration in triplicate. PIK-108 and wortmannin were used as controls (Gkeka et al., J Phys Chem B 119:1002-1016 (2015)).
To evaluate the in vitro activity of the compound having the formula (II) (PI3K-010), PI3Kα activity assays were performed using PIP2 containing liposomes (Gkeka et al PLOS Comp Biol 2014). In this assay, PIP3 molecules produced by PI3Kα compete with biotinylated PIP3 for binding to recombinant GST-GRP1-PH domain (amino acids 263-380), which has been produced in bacteria, bound to glutathione coated 96-well plates. Quantitation of the competed amount of biotin-PIP3 is estimated by the peroxidase activity of streptavidin-HRP that binds to the plate and provides a measure for the activity of the protein. The compounds were preincubated with all the components of the assay mixture, except PIP2, for 10 min, at 25° C. […]
(§1) To evaluate the in vitro activity of the compound having the formula (III) (PI3K-010), PI3Kα activity assays were performed using PIP2 containing liposomes (Gkeka et al PLOS Comp Biol 2014). […] Quantitation of the competed amount of biotin-PIP3 is estimated by the peroxidase activity of streptavidin-HRP that binds to the plate and provides a measure for the activity of the protein. […]
as §1, with “(IV) (PI3K-024),” for “(III) (PI3K-010),”

[2] = test system: breast cancer in WAPCre/exon20 Pik3ca*/MMTV-Myc mouse; test: Micro PET/CT imaging and Ki67 immunohistochemistry of breast tumors in WAPCre/exon20 Pik3ca*/MMTV-Myc mouse; type: in vivo
Source text: In order to test the in vivo activity of potential anticancer drugs, establishing a corresponding cancer animal model is required. To generate mouse tumors at chosen anatomical sites, a variant of a genetic scheme that is based on Cre/loxP recombination is often used. Depending on the tissue-specificity of the promoter driving Cre expression, corresponding tumors develop in progeny derived from matings between Cre-producer mice and Cre-responder partners carrying a dormant oncogenic transgene, which becomes functional after excision of an upstream-positioned floxed DNA segment that blocks its expression [see Politi et al. Oncogene 23:1558-1565 (2004); Klinakis et al. Proc Natl Acad Sci USA 106:2359-2364 (2009), Stratikopoulos et al. Cancer Cell 27:837-851 (2015)). To develop mouse strains carrying Pik3ca gain of function mutations (hereafter referred to as Pik3ca*), a knock-in gene targeting strategy was followed (Stratikopoulos et al. Cancer Cell 27:837-851 (2015)). Thus, either of the two hotspot mutations of the Pik3ca locus (in exon 20 or in exon 9) was targeted so that the mutated Pik3ca would be expressed from the endogenous locus and not from a transgene, thus, mimicking the expression found in human tumors. Activation of the exon 20 Pik3ca oncogenic mutation was achieved after mating the animals with WAPCre producers (WAP is a milk protein, the promoter of which is used for driving Cre expression, specifically in the mammary gland). Mammary tumors appeared in such animals after a very long latency of 490 days (median). […] These mice were used to test the efficacy of compounds discussed herein.
FIG. 6. Example of micro PET/CT imaging of WAPCre/exon20 Pik3ca*/MMTV-Myc mouse (compared with a negative wild-type control) at the beginning and end of treatment (one month) of breast cancer with the PI3K-010 compound.
PET/CT images of a WAPCre/exon20 Pik3ca*/MMTV-Myc mouse were acquired at the beginning and end of treatment ([…]) of breast cancer with the PI3K-010 compound (cf. FIG. 6). The compound was administered per os (by gavage) at 100 mg/Kg doses. […]

wild type PI3Kα protein = target: T2, wild type PI3Kα protein (Homo sapiens, UniProt P42336); test: In vitro cell-free PI3Kα activity assay using PIP2 containing liposomes (wild type); type: biochemical
T2 construct: purchased Millipore
T2 sequence (P42336 whole entry): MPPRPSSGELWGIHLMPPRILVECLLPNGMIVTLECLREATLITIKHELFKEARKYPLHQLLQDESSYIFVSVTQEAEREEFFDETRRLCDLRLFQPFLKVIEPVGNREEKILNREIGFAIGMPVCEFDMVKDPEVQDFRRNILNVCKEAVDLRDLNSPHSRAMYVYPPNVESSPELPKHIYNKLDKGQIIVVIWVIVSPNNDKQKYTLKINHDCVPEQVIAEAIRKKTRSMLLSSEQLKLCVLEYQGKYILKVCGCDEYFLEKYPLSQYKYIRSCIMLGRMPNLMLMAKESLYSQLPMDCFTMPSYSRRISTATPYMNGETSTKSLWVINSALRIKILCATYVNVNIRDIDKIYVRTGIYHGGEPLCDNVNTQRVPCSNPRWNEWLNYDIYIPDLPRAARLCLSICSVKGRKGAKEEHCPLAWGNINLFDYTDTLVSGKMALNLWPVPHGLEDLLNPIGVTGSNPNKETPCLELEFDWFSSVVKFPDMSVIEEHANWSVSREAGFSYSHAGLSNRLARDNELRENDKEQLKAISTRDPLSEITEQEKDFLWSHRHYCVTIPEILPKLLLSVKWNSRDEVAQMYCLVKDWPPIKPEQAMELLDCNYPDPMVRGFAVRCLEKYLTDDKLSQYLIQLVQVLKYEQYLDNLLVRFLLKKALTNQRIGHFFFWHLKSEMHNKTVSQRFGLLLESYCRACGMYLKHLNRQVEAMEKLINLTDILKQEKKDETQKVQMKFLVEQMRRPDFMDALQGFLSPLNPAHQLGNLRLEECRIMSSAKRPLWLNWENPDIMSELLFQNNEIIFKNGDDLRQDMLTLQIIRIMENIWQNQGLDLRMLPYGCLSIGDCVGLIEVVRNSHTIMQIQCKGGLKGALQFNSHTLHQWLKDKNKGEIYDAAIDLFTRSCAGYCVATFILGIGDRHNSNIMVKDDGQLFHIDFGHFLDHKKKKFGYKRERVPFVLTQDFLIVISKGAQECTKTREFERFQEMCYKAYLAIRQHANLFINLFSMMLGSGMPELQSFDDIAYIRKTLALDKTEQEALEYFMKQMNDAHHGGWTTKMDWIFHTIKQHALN
T2 sequence (P27986 whole entry partner): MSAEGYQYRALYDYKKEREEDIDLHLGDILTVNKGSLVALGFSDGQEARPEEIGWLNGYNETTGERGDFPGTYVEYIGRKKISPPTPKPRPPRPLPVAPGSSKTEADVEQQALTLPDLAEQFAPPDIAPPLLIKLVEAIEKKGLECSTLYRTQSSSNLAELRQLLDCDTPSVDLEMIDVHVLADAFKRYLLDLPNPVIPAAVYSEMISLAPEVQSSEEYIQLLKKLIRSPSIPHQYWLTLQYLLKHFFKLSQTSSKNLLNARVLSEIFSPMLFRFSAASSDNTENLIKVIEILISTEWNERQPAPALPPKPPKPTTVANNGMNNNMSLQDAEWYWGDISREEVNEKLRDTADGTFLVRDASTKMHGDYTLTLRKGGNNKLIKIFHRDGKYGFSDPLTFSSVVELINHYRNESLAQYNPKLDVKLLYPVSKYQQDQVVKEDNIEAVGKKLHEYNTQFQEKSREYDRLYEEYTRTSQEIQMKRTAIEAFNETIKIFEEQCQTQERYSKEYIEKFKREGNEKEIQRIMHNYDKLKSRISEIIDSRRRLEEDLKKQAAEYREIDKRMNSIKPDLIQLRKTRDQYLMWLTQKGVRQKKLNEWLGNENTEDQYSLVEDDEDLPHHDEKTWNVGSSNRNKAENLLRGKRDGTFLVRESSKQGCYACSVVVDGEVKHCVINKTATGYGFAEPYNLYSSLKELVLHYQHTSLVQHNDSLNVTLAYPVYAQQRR

T1 sequence (P42336 whole entry H1047R): as the sequence (P42336 whole entry) above, with H1047R counted along it
T1 sequence (P27986 whole entry partner): as the sequence (P27986 whole entry partner) above

Structure (SMILES) | Inhibition selectivity for mutant PI3Kα H1047R compared to wild-type PI3Kα [1] | Proliferation index (Ki67 immunohistochemistry) after treatment ([2]; 100 mg/Kg per os by gavage, surgically removed breast tumors, controls 69.9+5.1%) | Uptake of 18F-FDG by remnants of breast cancer (PET/CT) ([2]; 100 mg/Kg per os, beginning vs end of treatment (two weeks)) | Immunohistochemical analysis: tumor necrosis after treatment ([2]; 100 mg/Kg per os, in comparison with the controls) | IC50 ([1]; read-out: IC50 for the mutant H1047R PI3Kα) | IC50 (wild type PI3Kα protein; extrapolated, very low inhibition at the highest tested concentrations, read-out: IC50 for the WT PI3Kα, estimated by extrapolation) | IC50 ([1]; 100 μM ATP, read-out: IC50 against mutant H1047R PI3Kα) | IC50 (wild type PI3Kα protein; logit-log plots, 100 μM ATP, PIP2 liposomes, read-out: IC50 against WT PI3Kα)
c1cc(CSc2nc3ccccc3[nH]2)nc(CSc2nc3ccccc3[nH]2)c1 [PI3K-010, 2,6-bis(((1H-benzo[d]imidazol-2-yl)thio)methyl)pyridine] | 11 fold | 15.0+3.3% | diminished uptake | tumor necrosis |  |  |  | 
O=C(NCc1ccccc1)c1cccc(C(=O)NCc2ccccc2)n1 [PI3K-021, N^2,N^6-dibenzylpyridine-2,6-dicarboxamide] | > 100 fold |  |  |  | 13.5 µM | > 1000 µM |  | 
O=C(Nc1cccc(O)c1)c1cccc(C(=O)Nc2cccc(O)c2)n1 [PI3K-024, N^2,N^6-bis(3-hydroxyphenyl)pyridine-2,6-dicarboxamide] |  |  |  |  |  |  | 0.064 µM | 0.006 µM

Reference: patent publication US20210246120A1, “METHOD OF PREPARATION AND USE OF PHOSPHOINOSITIDE 3-KINASE INHIBITORS IN TREATING CANCER” (BIOMEDICAL RESEARCH FOUNDATION OF THE ACADEMY OF ATHENS …, priority 2018, published 2021)
